Where two headings read alike, the source gives them in different places.
Key:
[1] = test system: MEFs infected with the four factors (Oct4, Sox2, Klf4 and c-Myc); type: cell-based, mouse
Protocol: FIG. 1(a) MEFs infected with the four factors (Oct4, Sox2, Klf4 and c-Myc) were treated with various chemicals for a week, the percentage of Oct4-GFP positive cells induced was measured through FACS analysis, and compared to infected MEFs without treatment or treated with DMSO (the solvent for Dexamethasone, SAHA and TSA). The chemicals used were: 5′-azaC (2 μM), dexamethasone (dex, 1 μM), 5′-azaC (2 μM) together with dexamethasone (1 μM), VPA (2 mM), SAHA (5 μM) and TSA (20 nM). n=4 for each treatment. For all figures in this study, standard deviations are indicated by error bars, and P values by two-tailed student t-test less than 0.05, 0.01 and 0.001 are indicated by one, two and three asterisks respectively.
To quantitate reprogramming efficiency, we established an assay based on Fluorescence-Activated Cell Sorting (FACS) analysis using an Oct4-GFP transgenic reporter, where the expression of the green fluorescent protein (GFP) is controlled by the promoter and enhancers of Oct4, a pluripotent marker gene^14.
MEFs were derived from e13.5 embryos hemizygous for the Oct4-GFP transgenic allele. Embryos were sexed by inspecting gonads for the pattern of Oct4-GFP expression. Gonads and internal organs were removed before processing the embryos for MEF isolation. To generate iPS cells that can be identified in mouse chimeras after blastocyst injection, we derived MEFs from e13.5 embryos that are hemizygous for Oct4-GFP and heterozygous for the Rosa26-lacZ reporter allele. MEFs were grown in DMEM supplemented with 10% FBS, L-glutamine, penicillin/streptoMycin, nonessential amino acids, and sodium pyruvate. MEFs in early passages (up to passage 5) were used for generation of iPS cells.
Moloney-based retroviral vector (pMXs) containing the murine complementary DNAs of Oct4, Sox2, c-Myc, and Klf4 were obtained from Addgene^1. These plasmids were co-transfected into 293T cells with packaging vectors (pUMVC and pCMV-VSVG), and viral supernatants were collected 48 hours post-transfection to infect MEFs. Two to three rounds of infection were performed during a 48 hour period. The first day after viral supernatants were removed was defined as 0 day post-infection. Infected MEFs were subsequently cultured in mouse ES cell media (Knockout DMEM supplemented with 15% Hyclone FBS, L-glutamine, penicillin/streptoMycin, nonessential amino acids, β-mercaptoethanol, and with 1000 U/ml LIF), and treated with small molecules or growth factors for a week starting from 1 or 2 days post-infection. […] All conditions were tested in quadruplicates.

[2] = test system: MEFs infected with the four factors (Oct4, Sox2, Klf4 and c-Myc); experiment: cells; type: cell-based, mouse; details: 4-factor infected MEFs

CC(=O)O/N=C1/C(=C2/C(=O)Nc3cc(Br)ccc32)Nc2ccccc21 [BIO-Acetoxime]
effect on reprogramming efficiency ([1]; 2 μM, 4-factor infected MEFs): no significant effect

COc1cccc(-c2cc(=O)c3ccccc3o2)c1N [PD98059]
effect on reprogramming efficiency ([2]; 40 μM): no significant effects

O=C(CCCCCCC(=O)Nc1ccccc1)NO [SAHA, suberoylanilide hydroxamic acid]
improvement over the control DMSO treatment ([1]; 5 μM, 4-factor infected MEFs): 10 fold
percentage of GFP positive cells ([1]; 5 μM, 4-factor infected MEFs): approximately 0.198% (±0.102%)

CC(/C=C/C(=O)NO)=C\[C@@H](C)C(=O)c1ccc(N(C)C)cc1 [TSA, trichostatin A]
percentage of GFP positive cells ([1]; 20 nM, 4-factor infected MEFs): approximately 1.535% (±0.618%)

N#CC(=C(/N)Sc1ccccc1N)/C(C#N)=C(\N)Sc1ccccc1N [U0126]
effect on reprogramming efficiency [1]: no significant effects

C[C@@H]1C[C@H]2[C@@H]3CCC4=CC(=O)C=C[C@]4(C)[C@@]3(F)[C@@H](O)C[C@]2(C)[C@@]1(O)C(=O)CO [dexamethasone]
improvement of the effect of 5′-azaC when used in combination [1]: 2.6 fold
effect on reprogramming efficiency ([1]; 1 μM alone, 4-factor infected MEFs): no significant effect

Wnt3a
effect on reprogramming efficiency ([2]; 100 ng/ml): no significant effect

B1: BMP4: recombinant human Bmp4 from Roche (protein, UniProt P12644 293-408, looked up)
Bone morphogenetic protein 4: SPKHHSQRARKKNKNCRRHSLYVDFSDVGWNDWIVAPPGYQAFYCHGDCPFPLADHLNSTNHAIVQTLVNSVNSSIPKACCVPTELSAISMLYLDEYDKVVLKNYQEMVVEGCGCR
effect on reprogramming efficiency ([2]; 100 ng/ml): had no effect

From US20110014164A1, “EFFICIENT INDUCTION OF PLURIPOTENT STEM CELLS USING SMALL MOLECULE COMPOUNDS” (PRESIDENT AND FELLOWS OF HARVARD COLLEGE, priority 2008, published 2011)
